From US20070196510A1, “Method for treating resistant hypertension” (priority 2006, published 2007)
Entries after “also recorded” stand apart in the source; their conditions may differ.

Tested on: patients with resistant hypertension
Experiment: Same clinical study: safety and tolerability assessments
Type: in vivo, human
Protocol: Physical examinations, vital sign measurements, clinical chemistry and hematologic laboratory tests, and electrocardiography were performed at the screening visit and periodically throughout the study. Blood samples were obtained at baseline and at weeks 4 and 10 during study drug treatment to monitor liver function. Additional blood samples were drawn from male patients at baseline and week 10 to assess follicle stimulating hormone, inhibin B, luteinizing hormone and testosterone levels. Male fertility was assessed by analysis of semen samples obtained within 2 weeks before baseline and within 2 weeks before week 10. Adverse events were monitored throughout the study.
A nonlinear mixed effect model was used for the analysis of change in blood pressure, with comorbidity status as a covariate. This model used all observed blood pressure measurements with no imputation for missing values. Linear contrast statements were used to test the slope through a given time point to test the effect of the dose administered on that week. Estimates of treatment effect were obtained via least square means. Response rates were compared with logistic regression models at each blood pressure measurement with comorbidity status as a covariate; missing values were imputed with last observation carried forward for these models. Safety summaries include all patients who received ≧1 dose of blinded study medication.

COc1cc(OC)nc(O[C@H](C(=O)O)C(OC)(c2ccccc2)c2ccccc2)n1 [Darusentan, (+)-(S)-2-[(4,6-dimethoxy-2-pyrimidinyl)oxy]-3-methoxy-3,3-diphenylpropionic acid]
overall tolerability (10 to 300 mg once daily for 10 weeks, add-on therapy): generally safe and well tolerated
decreases in hematocrit reported as adverse events (all events mild): 2 patients
decreases in hemoglobin reported as adverse events (all events mild): 2 patients
mean concentrations of ALT, AST, and γ-glutamyltransferase (both groups): decreased slightly from baseline
number of serious adverse events reported (darusentan group, n = 76): Five
patients reporting serious adverse events (darusentan group, n = 76): 4 patients
patients who discontinued the study because of an adverse event (darusentan group, n = 76): 4 patients
cases of severe edema reported (human, in vivo): one
deaths during the course of the study (human, in vivo): No patients died
effects on heart rate or liver enzyme levels (human, in vivo): no clinically relevant effects
intensity of peripheral edema (human, in vivo): largely mild to moderate
patients able to successfully escalate study medication dose to 300 mg/day (human, in vivo): 78%
patients with elevations in ALT or AST >2×ULN (human, in vivo): no patients; also recorded: no drug-related serious adverse events or elevations in serum aminotransferase concentrations>2×ULN
relation of serious adverse events to study medication (human, in vivo): None of these events were considered to be related to study medication; also recorded: no drug-related serious adverse events
Treatment-emergent adverse event: Arthralgia, patients % (n = 76): 3%
Treatment-emergent adverse event: Arthralgia, patients n (n = 76): 2
Treatment-emergent adverse event: Arthritis, patients n (n = 76): 0
Treatment-emergent adverse event: Diarrhea, patients % (n = 76): 1 (1) %
Treatment-emergent adverse event: Diarrhea, patients n (n = 76): 1 (1)
Treatment-emergent adverse event: Dizziness, patients % (n = 76): 7%
Treatment-emergent adverse event: Dizziness, patients n (n = 76): 5
Treatment-emergent adverse event: Gastroenteritis, patients % (n = 76): 5%
Treatment-emergent adverse event: Gastroenteritis, patients n (n = 76): 4
Treatment-emergent adverse event: Headache, patients % (n = 76): 11%
Treatment-emergent adverse event: Headache, patients n (n = 76): 8
Treatment-emergent adverse event: Nasopharyngitis, patients % (n = 76): 7%
Treatment-emergent adverse event: Nasopharyngitis, patients n (n = 76): 5
Treatment-emergent adverse event: Peripheral edema, patients % (n = 76): 17%
Treatment-emergent adverse event: Peripheral edema, patients n (n = 76): 13
Treatment-emergent adverse event: Sinusitis, patients % (n = 76): 8%
Treatment-emergent adverse event: Sinusitis, patients n (n = 76): 6
Treatment-emergent adverse event: Upper respiratory tract infection, patients % (n = 76): 5%
Treatment-emergent adverse event: Upper respiratory tract infection, patients n (n = 76): 4
liver function test results (vs placebo): comparable between treatment groups
heart rate, change from baseline (week 10, placebo 2.3±1.3): 0.4±0.9 beats per minute
